As usually defined, the inhibition is the change of the read-out against control, counted positive when it falls.

One test has as its system HOP-92. Briefly: NCI 60 cell line panel (SRB), HOP-92. Conditions: Homo sapiens; HOP-92, Non-Small Cell Lung Cancer; single dose of 10 μM; read-out: Cell Growth Percent. The test is classed as cell-based.
For another test, the system named is 786-0. Nature of the test: NCI 60 cell line panel (SRB), 786-0. The class given is cell-based. The settings on record: Homo sapiens; 786-0, Renal Cancer; single dose of 10 μM; read-out: Cell Growth Percent.
The subject of another test is BT-549. Nature of the test: NCI 60 cell line panel (SRB), BT-549. The class given is cell-based. Conditions: Homo sapiens; BT-549, Breast Cancer; single dose of 10 μM; read-out: Cell Growth Percent.
The next test has as its system SN12C. Nature of the test: NCI 60 cell line panel (SRB), SN12C. The settings on record: Homo sapiens, Renal Cancer, single dose of 10 μM, read-out: Cell Growth Percent. The class given is cell-based.
For a further test, the target named is T1, VEGFR-2 (KDR) (Homo sapiens, UniProt P35968).
T1 construct: purchased BPS Bioscience 40301
T1 sequence (P35968 20-1356): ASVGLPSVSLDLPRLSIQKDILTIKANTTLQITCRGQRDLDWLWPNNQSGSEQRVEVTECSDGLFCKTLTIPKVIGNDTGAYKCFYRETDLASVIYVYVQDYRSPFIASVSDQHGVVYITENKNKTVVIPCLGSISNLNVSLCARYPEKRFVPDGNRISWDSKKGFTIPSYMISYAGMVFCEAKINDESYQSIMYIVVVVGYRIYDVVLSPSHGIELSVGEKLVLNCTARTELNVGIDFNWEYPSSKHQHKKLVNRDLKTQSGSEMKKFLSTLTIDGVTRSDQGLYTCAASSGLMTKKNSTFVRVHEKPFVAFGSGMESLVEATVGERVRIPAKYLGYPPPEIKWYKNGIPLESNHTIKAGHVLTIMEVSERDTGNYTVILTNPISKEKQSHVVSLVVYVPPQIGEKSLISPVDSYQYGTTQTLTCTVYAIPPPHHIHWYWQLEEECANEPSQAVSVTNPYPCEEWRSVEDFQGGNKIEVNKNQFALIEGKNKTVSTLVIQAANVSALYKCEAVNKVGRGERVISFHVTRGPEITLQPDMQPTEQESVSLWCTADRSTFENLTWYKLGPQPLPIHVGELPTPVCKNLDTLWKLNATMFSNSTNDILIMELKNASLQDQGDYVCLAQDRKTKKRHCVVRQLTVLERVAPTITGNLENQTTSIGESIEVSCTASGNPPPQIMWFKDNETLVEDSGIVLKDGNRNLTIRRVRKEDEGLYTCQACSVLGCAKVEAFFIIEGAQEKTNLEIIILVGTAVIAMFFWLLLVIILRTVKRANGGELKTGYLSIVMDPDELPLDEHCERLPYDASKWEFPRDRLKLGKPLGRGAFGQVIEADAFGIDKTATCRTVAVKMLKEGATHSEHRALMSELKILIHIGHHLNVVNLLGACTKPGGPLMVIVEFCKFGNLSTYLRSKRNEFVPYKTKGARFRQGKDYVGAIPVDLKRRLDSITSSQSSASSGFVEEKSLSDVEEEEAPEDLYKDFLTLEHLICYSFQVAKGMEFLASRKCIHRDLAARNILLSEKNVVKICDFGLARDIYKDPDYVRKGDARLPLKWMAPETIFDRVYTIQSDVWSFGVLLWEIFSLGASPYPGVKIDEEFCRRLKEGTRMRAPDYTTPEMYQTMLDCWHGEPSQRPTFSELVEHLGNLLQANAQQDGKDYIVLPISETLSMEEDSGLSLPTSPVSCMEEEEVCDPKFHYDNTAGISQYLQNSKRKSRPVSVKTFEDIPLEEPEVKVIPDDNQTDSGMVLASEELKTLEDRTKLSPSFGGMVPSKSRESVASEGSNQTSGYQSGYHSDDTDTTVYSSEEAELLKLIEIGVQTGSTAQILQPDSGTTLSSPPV
Nature of the test: In vitro VEGFR-2 tyrosine kinase activity (Kinase-Glo Plus luminescence, BPS Bioscience). The class given is biochemical. Conditions: single dose concentration of 10 μM.

Another test relates to OVCAR-5. Nature of the test: NCI 60 cell line panel (SRB), OVCAR-5. The class given is cell-based. The settings on record: Homo sapiens; OVCAR-5, Ovarian Cancer; single dose of 10 μM; read-out: Cell Growth Percent.
For the next test, the system named is HS 578T. Nature of the test: NCI 60 cell line panel (SRB), HS 578T. The class given is cell-based. Conditions: Homo sapiens, Breast Cancer, single dose of 10 μM, read-out: Cell Growth Percent.
The test system of the next test is UACC-257. Nature of the test: NCI 60 cell line panel (SRB), UACC-257. The test is classed as cell-based. The settings on record: Homo sapiens; UACC-257, Melanoma; single dose of 10 μM; read-out: Cell Growth Percent.
The next test relates to SK-MEL-5. Nature of the test: NCI 60 cell line panel (SRB), SK-MEL-5. The test is classed as cell-based. The settings on record: Homo sapiens; SK-MEL-5, Melanoma; single dose of 10 μM; read-out: Cell Growth Percent.
Another test deals with HCT-116. Nature of the test: NCI 60 cell line panel (SRB), HCT-116. The settings on record: Homo sapiens; HCT-116, Colon Cancer; single dose of 10 μM; read-out: Cell Growth Percent. The test is classed as cell-based.
Another test deals with HL-60(TB). Briefly: NCI 60 cell line panel (SRB), HL-60(TB). Conditions: Homo sapiens, Leukemia, single dose of 10 μM, read-out: Cell Growth Percent. The test is classed as cell-based.
For another test, the system named is IGROV1. Briefly: NCI 60 cell line panel (SRB), IGROV1. The test is classed as cell-based. The settings on record: Homo sapiens, IGROV-1; IGROV1, Ovarian Cancer; single dose of 10 μM; read-out: Cell Growth Percent.
Another test has as its system NCI-H23. Nature of the test: NCI 60 cell line panel (SRB), NCI-H23. The class given is cell-based. Conditions: Homo sapiens; NCI-H23, Non-Small Cell Lung Cancer; single dose of 10 μM; read-out: Cell Growth Percent.
The test system of the next test is HCC-2998. Nature of the test: NCI 60 cell line panel (SRB), HCC-2998. The test is classed as cell-based. The settings on record: Homo sapiens; HCC-2998, Colon Cancer; single dose of 10 μM; read-out: Cell Growth Percent.
A further test deals with T-47D. Nature of the test: NCI 60 cell line panel (SRB), T-47D. The test is classed as cell-based. Conditions: Homo sapiens, T47D, Breast Cancer, single dose of 10 μM, read-out: Cell Growth Percent.
Another test relates to CCRF-CEM. Nature of the test: NCI 60 cell line panel (SRB), CCRF-CEM. The test is classed as cell-based. Conditions: Homo sapiens, Leukemia, single dose of 10 μM, read-out: Cell Growth Percent.
Another test relates to NCI/ADR-RES. Briefly: NCI 60 cell line panel (SRB), NCI/ADR-RES. The test is classed as cell-based. The settings on record: Homo sapiens, Ovarian Cancer, single dose of 10 μM, read-out: Cell Growth Percent.
For another test, the system named is OVCAR-4. Nature of the test: NCI 60 cell line panel (SRB), OVCAR-4. Conditions: Homo sapiens; OVCAR-4, Ovarian Cancer; single dose of 10 μM; read-out: Cell Growth Percent. The test is classed as cell-based.
The next test deals with MDA-MB-468. Briefly: NCI 60 cell line panel (SRB), MDA-MB-468. The class given is cell-based. The settings on record: Homo sapiens; MDA-MB-468, Breast Cancer; single dose of 10 μM; read-out: Cell Growth Percent.
The test system of a further test is SF-295. Nature of the test: NCI 60 cell line panel (SRB), SF-295. The class given is cell-based. Conditions: Homo sapiens; SF-295, CNS Cancer; single dose of 10 μM; read-out: Cell Growth Percent.
The next test relates to LOX IMVI. Nature of the test: NCI 60 cell line panel (SRB), LOX IMVI. The class given is cell-based. The settings on record: Homo sapiens, Melanoma, single dose of 10 μM, read-out: Cell Growth Percent.
In another test the test system is MDA-MB-435. Briefly: NCI 60 cell line panel (SRB), MDA-MB-435. The settings on record: Homo sapiens; MDA-MB-435, Melanoma; single dose of 10 μM; read-out: Cell Growth Percent. The test is classed as cell-based.
The test system of another test is TK-10. Briefly: NCI 60 cell line panel (SRB), TK-10. The test is classed as cell-based. The settings on record: Homo sapiens; TK-10, Renal Cancer; single dose of 10 μM; read-out: Cell Growth Percent.
For a further test, the system named is SNB-75. Briefly: NCI 60 cell line panel (SRB), SNB-75. The test is classed as cell-based. The settings on record: Homo sapiens; SNB-75, CNS Cancer; single dose of 10 μM; read-out: Cell Growth Percent.

For the compound `CCOC(=O)c1c(C)oc2ncnc(Nc3ccc(NC(=O)Nc4cccc(Cl)c4)cc3)c12` [Compound 15d], the activity at 10 µM came to 50.6% in the test on HOP-92; 79.1% in the test with 786-0; 61.5% with BT-549; 73.9% in the test on SN12C; 122% in the test with OVCAR-5; 80.6% in the test with HS 578T. Also, the activity at 10 µM was determined as 83.9% in the test with UACC-257; 52.9% in the test on SK-MEL-5; 50.7% in the test on HCT-116; 88.4% in the test on HL-60(TB); 78.4% in the test on IGROV1; 64% with NCI-H23. For the same compound, the activity at 10 µM in the test on HCC-2998 was found to be 105%; in the test with T-47D, 1.9%; in the test on CCRF-CEM, 31.5%; in the test on NCI/ADR-RES, 43.7%; with OVCAR-4 it was 73.7%; in the test with MDA-MB-468 it was 49.7%. Moreover, the activity at 10 µM in the test with SF-295 turned out to be 79.5%; in the test on LOX IMVI it was 64.1%; in the test with MDA-MB-435, 65.8%; in the test on TK-10 it was 79.1%; in the test with SNB-75 it was 70.6%. Moreover, at VEGFR-2 (KDR), the inhibition at 10 µM is 61%.

As to `O=C(Nc1ccc(Nc2ncnc3sc4c(c23)CCCC4)cc1)Nc1cccc(Cl)c1` [Compound 20d], the activity at 10 µM turned out to be 102% in the test with HOP-92; 103% in the test on 786-0; 100% in the test with BT-549; 102% in the test with SN12C; 108% in the test on OVCAR-5; 103% with HS 578T. Moreover, the activity at 10 µM in the test on UACC-257 stood at 93.8%; in the test with SK-MEL-5, 98.1%; in the test on HCT-116, 112%; in the test with HL-60(TB), 98.9%; in the test on IGROV1, 113%; in the test with NCI-H23, 103%. The activity at 10 µM in the test on HCC-2998 was 103%; in the test on T-47D, 100%; with CCRF-CEM, 97.7%; in the test with NCI/ADR-RES it was 113%; in the test on OVCAR-4, 101%; in the test with MDA-MB-468, 110%. The activity at 10 µM with SF-295 worked out at 96.8%; in the test with LOX IMVI, 103%; with MDA-MB-435 it was 104%; in the test with TK-10, 108%; in the test with SNB-75 it was 94.4%. Moreover, the inhibition at 10 µM at VEGFR-2 (KDR) was determined as 19%.

Turning to `O=C(Nc1ccccc1)Nc1ccc(Nc2ncnc3sc4c(c23)CCCC4)cc1` [Compound 20a], the activity at 10 µM with HOP-92 worked out at 100%; in the test with 786-0, 110%; in the test with BT-549 it was 109%; in the test with SN12C, 99.2%; with OVCAR-5, 119%; with HS 578T, 85.3%. Further, the activity at 10 µM was 93.5% with UACC-257; 97.3% with SK-MEL-5; 114% in the test on HCT-116; 97% with HL-60(TB); 107% with IGROV1; 100% in the test with NCI-H23. Moreover, the activity at 10 µM in the test on HCC-2998 is 95.3%; in the test with T-47D, 100%; in the test with CCRF-CEM, 92.3%; in the test on NCI/ADR-RES it was 107%; with OVCAR-4 it was 107%; in the test on MDA-MB-468 it was 96.8%. Besides, the activity at 10 µM came out at 102% in the test on SF-295; 99.4% with LOX IMVI; 112% in the test on MDA-MB-435; 124% in the test with TK-10; 93.3% in the test with SNB-75. Also, the inhibition at 10 µM on VEGFR-2 (KDR) turned out to be 39%.

For the origin of these results see paper PMC4832243, “Discovery of Potent VEGFR-2 Inhibitors based on Furopyrimidine and Thienopyrimidne Scaffolds as Cancer Targeting Agents” (Scientific Reports, 2016).
